Test results: patent US11000601B2, “Conjugated biological molecules, pharmaceutical compositions and methods” (OBI Pharma, Inc., priority 2016, dated 2021)
Values joined by “and” are separate entries in the source; they are usually repeats but may differ in a detail not shown here. Identical values can stand only once. Square brackets hold non-standard residues; d marks the D form. Peptide text beside a SMILES is read from it. * marks the point of attachment. Dolaproine = CO[C@@H]([C@@H]1CCCN1)[C@@H](C)C(=O)O; Dil = CC[C@H](C)[C@H](NC)[C@@H](CC(=O)O)OC; X1 = C[C@@H](N*)[C@@H](O)c1ccccc1; NMeV = CN[C@H](C(=O)O)C(C)C

Assays:
[1] = test system: HPAC tumor cells (ATCC CRL-2119) human pancreatic cancer; test: HPAC human pancreatic cancer xenograft model in male BALB/c nude mice: tumor volume, T/C, TGI; assay type: in vivo; conditions: for Tumor Volume (mm^3), Mean: group mean; for Tumor Volume (mm^3), Mean / Tumor Volume (mm^3): QW x 4, ADC (OBI-999) and OBI-888 10 mg/kg IV, MMAE 0.191 mg/kg IP; for Tumor Volume (mm^3): individual animals
Procedure: The HPAC tumor cells (ATCC CRL-2119) were maintained in vitro as a monolayer culture in 1:1 mixture of Dulbecco's modified Eagle's medium and Ham's F12 medium containing 1.2 g/L sodium bicarbonate, 2.5 mM L-glutamine, 15 mM HEPES and 0.5 mM sodium pyruvate supplemented with 0.002 mg/mL insulin, 0.005 mg/mL transferrin, 40 ng/mL hydrocortisone, 10 ng/mL epidermal growth factor and 5% fetal bovine serum, 100 U/mL penicillin and 100 μg/mL streptomycin at 37° C. in an atmosphere of 5% CO2 in air. The tumor cells were routinely subcultured twice weekly by trypsin-EDTA treatment. The cells growing in an exponential growth phase were harvested and counted for tumor inoculation.
The endpoint was to determine the anti-tumor effects of testing compounds. Tumor size was measured twice weekly in two dimensions using a caliper, and the volume was expressed in mm^3 using the formula: V=0.5 a×b^2 where a and b are the long and short diameters of the tumor, respectively. The tumor size was then used for calculation of T/C values. The T/C value (in percent) is an indication of antitumor effectiveness; T and C are the mean volumes of the treated and control groups, respectively, on a given day. TGI was calculated for each group using the formula: TGI (%)=[1−(Ti−T0)/(Vi−V0)]×100; Ti is the average tumor volume of a treatment group on a given day, T0 is the average tumor volume of the treatment group on day 0, Vi is the average tumor volume of the vehicle control group on the same day with Ti, and V0 is the average tumor volume of the vehicle group on day 0.
Summary statistics, including mean and the standard error of the mean (SEM), are provided for the tumor volume of each group at each time point. Statistical analysis of difference in the tumor volume among the groups were conducted on the data obtained at the best therapeutic time point after the final dose (the 37th day after grouping). A one-way ANOVA was performed to compare the tumor volume among groups, and when a significant F-statistics (a ratio of treatment variance to the error variance) was obtained, comparisons between groups were carried out with Games-Howell test, otherwise they were carried out with Dunnett (2 sided) test. […] All data were analyzed using SPSS 17.0. p<0.05 was considered to be statistically significant.

[2] = Body weight, mortality and signs of overt toxicity in NCI-H526 implanted female nu/nu mice; assay type: in vivo, mouse; conditions: for Body Weight (g), Mean: group mean; for Body Weight (g), individual animal No. 1-8: single mice; for Body Weight / Body Weight (g): individual mice, 0.191 mg/kg
Procedure: In a xenograft tumor model of human small cell lung cancer, viable NCI-H526 stage E carcinoma; variant small cell lung cancer cells (ATCC CRL-5811), were subcutaneously (SC) implanted (1×10^6 cells with matrigel (1:0.8) in 0.2 mL/mouse) into the right flank of female nu/nu mice. Tumor implanted mice were divided into five treatment groups, each group containing eight animals, and test agent administrations were initiated one day after cell implantation (denoted as Day 1).
Female nu/nu nude, aged 6-7 weeks, were obtained from BioLasco Taiwan (under Charles River Laboratories Licensee) and used. The animals were housed in individually ventilated cages (IVC, 36 Mini Isolator system). The allocation for 5 animals was 27×20×14 in cm. All animals were maintained in a hygienic environment under controlled temperature (20-24° C.) and humidity (30-70%) with 12-hour light/dark cycle. Free access to standard lab diet [MFG (Oriental Yeast Co., Ltd., Japan)] and autoclaved tap water were granted. All aspects of this work including housing, experimentation, and animal disposal were performed in general accordance with the “Guide for the Care and Use of Laboratory Animals: Eighth Edition” (National Academies Press, Washington, D.C., 2011) in our AAALAC-accredited laboratory animal facility. In addition, the animal care and use protocol was reviewed and approved by the IACUC at Eurofins Panlabs Taiwan, Ltd.
The tumor volumes, body weights, mortality, and signs of overt toxicity were monitored and recorded twice weekly for 45 days. Tumor growth inhibition was calculated as T/C (treatment/control)×100%. A T/C value≤42% compared to that of the vehicle control group was considered significant anti-tumor activity. Two-way ANOVA followed by Bonferroni test was used to ascertain the statistically significant significance of groups compared to respective vehicle control (*p<0.05).

[3] = 0.191 mg/kg IP once weekly for four weeks, single agent, Day 37
[4] = Day 1, NCI-H526 xenograft, female nu/nu mice, OBI-999/OBI-888 10 mg/kg IV, MMAE 0.191 mg/kg IP, once weekly x 4
[5] = Day 4, NCI-H526 xenograft, female nu/nu mice, OBI-999/OBI-888 10 mg/kg IV, MMAE 0.191 mg/kg IP, once weekly x 4
[6] = Day 15, NCI-H526 xenograft, female nu/nu mice, OBI-999/OBI-888 10 mg/kg IV, MMAE 0.191 mg/kg IP, once weekly x 4
[7] = Day 18, NCI-H526 xenograft, female nu/nu mice, OBI-999/OBI-888 10 mg/kg IV, MMAE 0.191 mg/kg IP, once weekly x 4
[8] = Day 31, NCI-H526 xenograft, female nu/nu mice, OBI-999/OBI-888 10 mg/kg IV, MMAE 0.191 mg/kg IP, once weekly x 4
[9] = Day 39, NCI-H526 xenograft, female nu/nu mice, OBI-999/OBI-888 10 mg/kg IV, MMAE 0.191 mg/kg IP, once weekly x 4
[10] = Gr. 8, 0.191 mg/kg × 4 IP once weekly, Day 57
[11] = Gr. 8, 0.191 mg/kg × 4 IP once weekly, Day 60
[12] = Gr. 8, 0.191 mg/kg × 4 IP once weekly, Day 64
[13] = Gr. 8, 0.191 mg/kg × 4 IP once weekly, Day 67
[14] = Gr. 8, 0.191 mg/kg × 4 IP once weekly, Day 70
[15] = Gr. 8, 0.191 mg/kg × 4 IP once weekly, Day 74
[16] = Gr. 8, 0.191 mg/kg × 4 IP once weekly, Day 78
[17] = Gr. 8, 0.191 mg/kg × 4 IP once weekly, Day 81
[18] = Gr. 8, 0.191 mg/kg × 4 IP once weekly, Day 85

CC[C@H](C)[C@@H]([C@@H](CC(=O)N1CCC[C@H]1[C@H](OC)[C@@H](C)C(=O)N[C@H](C)[C@@H](O)c1ccccc1)OC)N(C)C(=O)[C@@H](NC(=O)[C@@H](NC)C(C)C)C(C)C [MMAE, monomethyl auristatin E] (H-[NMeV]V[Dil][Dolaproine]-X1)
antitumor activity (in words) ([1]; 0.191 mg/kg IP once weekly for four weeks, single agent): minor antitumor activity
T/C [1, 3]: 75.8%
TGI [1, 3]: 25.2%
mean tumor size [1, 3]: 1,644 mm^3
Tumor Volume (mm^3), Mean ([1]; Day 0): 85 mm^3
Tumor Volume (mm^3) ([1]; Day 0): 58 mm^3 and 53 mm^3 and 132 mm^3 and 72 mm^3 and 86 mm^3 and 116 mm^3 and 71 mm^3 and 91 mm^3
Tumor Volume (mm^3), Mean ([1]; Day 3): 114 mm^3
Tumor Volume (mm^3) ([1]; Day 3): 128 mm^3 (2×) and 76 mm^3 and 148 mm^3 and 82 mm^3 and 158 mm^3 and 57 mm^3 and 137 mm^3
Tumor Volume (mm^3), Mean ([1]; Day 7): 134 mm^3
Tumor Volume (mm^3) ([1]; Day 7): 104 mm^3 and 114 mm^3 and 177 mm^3 and 144 mm^3 and 97 mm^3 and 167 mm^3
Tumor Volume (mm^3), Mean ([1]; Day 10): 245 mm^3
Tumor Volume (mm^3) ([1]; Day 10): 444 mm^3 and 196 mm^3 and 219 mm^3 and 160 mm^3 and 207 mm^3
Tumor Volume (mm^3), Mean ([1]; Day 14): 385 mm^3
Tumor Volume (mm^3) ([1]; Day 14): 429 mm^3 and 418 mm^3 (2×) and 268 mm^3 and 390 mm^3
Tumor Volume (mm^3), Mean ([1]; Day 17): 464 mm^3
Tumor Volume (mm^3) ([1]; Day 17): 590 mm^3 and 452 mm^3 and 510 mm^3 and 321 mm^3 and 448 mm^3
Tumor Volume (mm^3), Mean ([1]; Day 21): 551 mm^3
Tumor Volume (mm^3) ([1]; Day 21): 649 mm^3 and 692 mm^3 and 581 mm^3 and 383 mm^3 and 451 mm^3
Tumor Volume (mm^3), Mean ([1]; Day 24): 672 mm^3
Tumor Volume (mm^3) ([1]; Day 24): 748 mm^3 and 705 mm^3 and 822 mm^3 and 511 mm^3 and 571 mm^3
Tumor Volume (mm^3), Mean ([1]; Day 28): 858 mm^3
Tumor Volume (mm^3) ([1]; Day 28): 1080 mm^3 and 888 mm^3 and 913 mm^3 and 623 mm^3 and 785 mm^3
Tumor Volume (mm^3), Mean ([1]; Day 31): 1194 mm^3
Tumor Volume (mm^3) ([1]; Day 31): 1174 mm^3 and 1340 mm^3 and 1439 mm^3 and 1030 mm^3 and 989 mm^3
Tumor Volume (mm^3), Mean ([1]; Day 35): 1449 mm^3
Tumor Volume (mm^3) ([1]; Day 35): 1650 mm^3 and 1656 mm^3 and 1496 mm^3 and 1236 mm^3 and 1208 mm^3
Tumor Volume (mm^3), Mean ([1]; Day 37): 1644 mm^3
Tumor Volume (mm^3) ([1]; Day 37): 1652 mm^3 and 1963 mm^3 and 1828 mm^3 and 1196 mm^3 and 1580 mm^3
Body Weight (g), Mean [2, 4]: 23.9 g
Body Weight (g), individual animal No. 1-8 [2, 4]: 24 g (3×) and 25 g and 26 g and 23 g (2×) and 22 g
Body Weight (g), Mean [2, 5]: 23.6 g
Body Weight (g), individual animal No. 1-8 [2, 5]: 22 g and 25 g and 27 g and 21 g and 23 g (2×) and 24 g (2×)
Body Weight (g), individual animal No. 1-8 ([2]; Day 8, NCI-H526 xenograft, female nu/nu mice, OBI-999/OBI-888 10 mg/kg IV, MMAE 0.191 mg/kg IP, once weekly x 4): 24 g (2×) and 26 g and 28 g and 21 g and 25 g (2×) and 23 g
Body Weight (g), individual animal No. 1-8 ([2]; Day 11, NCI-H526 xenograft, female nu/nu mice, OBI-999/OBI-888 10 mg/kg IV, MMAE 0.191 mg/kg IP, once weekly x 4): 24 g (3×) and 28 g (2×) and 23 g (2×) and 25 g
Body Weight (g), Mean [2, 6]: 25.4 g
Body Weight (g), individual animal No. 1-8 [2, 6]: 25 g (2×) and 28 g (2×) and 24 g (2×) and 23 g and 26 g
Body Weight (g), Mean [2, 7]: 25.4 g
Body Weight (g), individual animal No. 1-8 [2, 7]: 25 g (3×) and 28 g (2×) and 24 g (3×)
Body Weight (g), individual animal No. 1-8 ([2]; Day 22, NCI-H526 xenograft, female nu/nu mice, OBI-999/OBI-888 10 mg/kg IV, MMAE 0.191 mg/kg IP, once weekly x 4): 24 g (2×) and 28 g (2×) and 25 g (4×)
Body Weight (g), individual animal No. 1-8 ([2]; Day 25, NCI-H526 xenograft, female nu/nu mice, OBI-999/OBI-888 10 mg/kg IV, MMAE 0.191 mg/kg IP, once weekly x 4): 26 g (3×) and 30 g and 29 g and 25 g (3×)
Body Weight (g), individual animal No. 1-8 ([2]; Day 29, NCI-H526 xenograft, female nu/nu mice, OBI-999/OBI-888 10 mg/kg IV, MMAE 0.191 mg/kg IP, once weekly x 4): 25 g and 32 g and 31 g and 26 g (2×) and 27 g (3×)
Body Weight (g), Mean [2, 8]: 27.8 g
Body Weight (g), individual animal No. 1-8 [2, 8]: 25 g and 32 g (2×) and 26 g (2×) and 27 g (3×)
Body Weight (g), individual animal No. 1-8 ([2]; Day 36, NCI-H526 xenograft, female nu/nu mice, OBI-999/OBI-888 10 mg/kg IV, MMAE 0.191 mg/kg IP, once weekly x 4): 26 g (2×) and 33 g (2×) and 28 g and 27 g and 29 g (2×)
Body Weight (g), Mean [2, 9]: 30.3 g
Body Weight (g), individual animal No. 1-8 [2, 9]: 27 g (3×) and 38 g and 34 g and 30 g (2×) and 29 g
Body Weight [2, 10]: 27 g (4×) and 24 g and 26 g
Body Weight (g) [2, 10]: died
Body Weight [2, 11]: 27 g (2×) and 25 g and 28 g (2×) and 26 g
Body Weight (g) [2, 11]: died
Body Weight (g), Mean [2, 12]: 26.7 g
Body Weight [2, 12]: 27 g (4×) and 24 g and 28 g
Body Weight (g) [2, 12]: died
Body Weight [2, 13]: 27 g (2×) and 25 g and 28 g (3×)
Body Weight (g) [2, 13]: died
Body Weight [2, 14]: 26 g (2×) and 25 g and 27 g (3×)
Body Weight (g) [2, 14]: died
Body Weight [2, 15]: 27 g and 24 g (2×) and 28 g (3×)
Body Weight (g) [2, 15]: died
Body Weight [2, 16]: 28 g (4×) and 25 g (2×)
Body Weight (g) [2, 16]: died
Body Weight [2, 17]: 28 g (3×) and 25 g and 27 g and 24 g
Body Weight (g) [2, 17]: died
Body Weight [2, 18]: 27 g and 25 g and 28 g (2×) and 29 g and 23 g
Body Weight (g) [2, 18]: died
Body Weight (g), Mean ([2]; Gr. 8, 0.191 mg/kg × 4 IP once weekly, Day 100): 27.9 g
